This note sets out measurements from paper PMC11111404, “Discovery of potent small-molecule inhibitors of lipoprotein(a) formation” (Nature, 2024).

In data set [1] the test system is Lp(a). Briefly: Lp(a) levels in LPA × ApoB100 transgenic mice. The format is in vivo, mouse. Set-up: Lp(a) / Diff_vs_Vehicle: unit not given here. As to conditions: for % max Lp(a) decrease (dose, mg/kg): Lp(a) transgenic mice section; for % Lp(a) max decrease / ED50: BID, 5 days dosing; for Percent_change_from_Vehicle / Diff_vs_Vehicle: Lp(a); for Diff_vs_Vehicle: group statistics; for ED50: Mus musculus, 120 h. The protocol:
(§1) The LPA gene (GenBank accession code NM_005577) encoding the human apo(a) protein with a signal peptide, one KIV type 1, six KIV type 2 repeats, one each of KIV types 3–10, one KV and one protease domain was subcloned into a transgenic vector containing a mouse albumin promoter cassette and a human growth hormone polyadenylation signal. The transgenic mouse line was generated by pronucleus injection of the LPA transgenic vector. Eight individual transgenic founder mice were assessed for germline transmission of LPA by genotyping and assessment of the levels of apo(a) in the plasma. Positive founder mice were crossed with ApoB100 transgenic mice (Taconic model 1004), and the resulting mouse line nomenclature (B6.SJL-Tg(APOB)1102Sgy Tg(Alb-LPA)32Arte) was selected on the basis of the confirmation of germline transmission, the identification of LPA and huApoB100 transgenes and the levels of Lp(a) in the plasma. Mice hemizygous for both transgenes were used for pharmacology studies. The studies were conducted in female Lp(a) double transgenic mice (age around 7–17 months). Mice were housed in cages with a standard light cycle (12-h light, 12-h dark), at room temperature (22 ± 4 °C), with a relative humidity of 30–70%. Mice were identified by numbers on the cage cards. After arrival, mice were fed on a normal diet (Harlan Teklad diet 2014). Mice were randomized to treatment groups (n = 5 per group, unless otherwise noted) by body weight and baseline plasma Lp(a) concentration using a block randomized allocation tool (BRAT) for the study. In an example Lp(a) transgenic mouse study in which 66 mice were prescreened for baseline Lp(a) levels, the average Lp(a) level was 45 ± 1.8 µg ml^−1 (range 20–78 µg ml^−1). Mice were dosed with various compounds in vehicle (10 ml kg^−1, 1% hydroxyethyl cellulose (HEC), 0.25% Tween-80, Antifoam) or with vehicle alone as a control orally BID for five days. Blood samples were collected by tail bleeds at designated times, and Lp(a) levels were determined by ELISA by an investigator who was blinded to group allocation. In brief, lipoprotein particles were captured by a goat anti-Lp(a)-antibody-coated plate (Abcam ab31675, diluted 1:12,500 in HEPES-buffered saline), the plates were washed and samples were detected using an HRP-conjugated goat anti-apoB antibody (Abcam ab27622, diluted 1:3,000). Colorimetric peroxidase substrate 3,3’,5,5’-TMB was added, and the reaction was stopped using 1 N sulfuric acid. Absorbance at 450 nm was read on a Molecular Devices SpectraMax plate reader. Blood samples were collected at four hours after dosing on day 5 of dosing to confirm exposure. Full pharmacokinetic (PK) profiles were not evaluated. Concentrations of compounds were evaluated from dried blood spots through a non-Good Laboratory Practice (GLP) liquid chromatography with tandem mass spectrometry (LC–MS/MS) assay. Data were analysed in GraphPad Prism v.9.5.1

The target in data set [2] is T1, apo(a) KIV2 (Homo sapiens, UniProt P08519).
T1 construct: made in house
T1 sequence (P08519 141-219 limits assumed): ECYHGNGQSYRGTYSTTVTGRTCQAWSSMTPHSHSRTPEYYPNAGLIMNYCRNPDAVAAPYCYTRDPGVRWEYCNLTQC
Briefly: ITC binding to apo(a) KIV2. As to conditions: for binding to KIV2 / Kd: ITC; for binding to KIV2: in words; for Fold-difference (KIV2:KIV8): ratio of ITC Kd values KIV2:KIV8. The protocol:
The nucleotide sequence encoding the human LPA gene (NP_005568.2) was inserted into a mammalian expression vector containing a cytomegalovirus promoter. Protein expression was performed by transient transfection of human embryonic kidney 293 (HEK293) cells cultured in serum-free medium. The culture medium was collected five days after transfection and human apo(a) protein was purified using L-lysine affinity chromatography. Nucleotide sequences encoding various KIV domains of human apo(a) and human and rat plasminogen were inserted into a pET21a Escherichia coli expression vector. Bacterial BL21(DE3) was used as the expression host, and the induction of protein expression was performed in 2× TY medium with 1 mM isopropyl β-D-1-thiogalactopyranoside at 37 °C for 5 h. Cells were collected and stored at –80 °C for subsequent protein purification and refolding. The frozen cell pellets were lysed and inclusion bodies were purified. The protein refolding was performed using the rapid-dilution method, and the refolded proteins were further purified by size-exclusion chromatography. All protein concentrations were determined by A280.
Experiments were performed on a MicroCal Auto-iTC200 titration calorimeter (Malvern Panalytical), with a cell volume of 200 μl and a 40-μl microsyringe. Experiments were performed at 25 °C while stirring at 750 rpm in ITC buffer (50 mM phosphate buffer at pH 8.0). The microsyringe was loaded with a solution of the respective compounds, with the concentration measured by quantitative nuclear magnetic resonance, and was inserted into the calorimetric cell prefilled with the respective recombinant proteins of known concentration in ITC buffer. The system was equilibrated to 25 °C and an extra delay of 60 s was applied. The first titrations were performed using an initial control injection of 0.5 μl, followed by 18 identical injections of 2 μl, with a duration of 4 s per injection and 150-s intervals between injections. The second titration was performed over the first titration without cleaning the cell and was carried out with continuous injections as an automation method in a MicroCal Auto-iTC200. The second titrations were performed using 19 identical injections of 2 μl, with a duration of 4 s per injection and 150-s injection intervals. The data were corrected for ligand heats of dilution and were deconvoluted using MicroCal PEAQ-ITC Analysis Software to yield the enthalpy of binding (ΔH) and the binding constant (K). Thermodynamic parameters were calculated using the basic equation of thermodynamics (ΔG = ΔH – TΔS = –RTlnKd), where ΔG, ΔH and ΔS are the changes in free energy, enthalpy and entropy of binding, respectively; Kd is the equilibrium dissociation constant; T is the absolute temperature (kelvins); and R is the gas constant (1.987 cal mol^−1 K^−^1). A single-binding-site model was used in MicroCal PEAQ-ITC Analysis Software v.0.9.

Data set [3] is described as follows: Drug concentration in mouse blood after oral dosing. The format is in vivo. Particulars: female, whole blood (dried blood spots), day 5, read-out: Drug concentration, 4-h time point. The protocol:
as §1

[4] abbreviates: Lp(a) transgenic mice, oral BID, five days.
[5] abbreviates: transgenic mice, 3mpk oral BID five days, individual animal, 3 mg/kg.
Setting [6] is: transgenic mice, 10mpk oral BID five days, individual animal, 10 mg/kg.
The mark [7] stands for this setting: transgenic mice, 30mpk oral BID five days, individual animal, 30 mg/kg.
Setting [8] is: transgenic mice, 100mpk oral BID five days, individual animal, 100 mg/kg.
Setting [9] is: transgenic mice, 1mpk oral BID five days, individual animal, 1 mg/kg.
Setting [10] is: 1mpk, individual animals, Fig 3f data.
[11] abbreviates: 3mpk, individual animals, Fig 3f data.
[12] abbreviates: 10mpk, individual animals, Fig 3f data.
Where [13] appears, read: 30mpk, individual animals, Fig 3f data.

Values joined by “and” are separate entries in the source; they are usually repeats but may differ in a detail not shown here. Equal values may be shown once. Read-outs that look alike come from different tables or passages of the source.

On to `Cl.O=C(O)[C@@H](Cc1ccccc1)[C@H]1CCNC1` [LSN3353871], for which the “% max Lp(a) decrease (dose, mg/kg)” value in data set [1] (dose 20 mg/kg) is recorded as 40 (20) %. Moreover, the “% Lp(a) max decrease” value in data set [1] (Lp(a) transgenic mice) was 78%. Besides, the “ED50 for Lp(a) reduction” value in data set [1] (setting [4]) was determined as 14 mg/kg. Also, the “maximum decrease in Lp(a) levels” value in data set [1] (setting [4]) is “up to 78%”. For the same compound, the Percent_change_from_Vehicle in data set [1] (setting [5]) was -29.9395% and -21.6818% and -23.4274% and -25.3773% and -20.1775%; in data set [1] (setting [6]), -56.5511% and -68.7767% and -51.9146% and -54.3536%; in data set [1] (setting [7]) it was -73.0355% and -73.0232% and -55.5978% and -55.3749% and -63.9731%; in data set [1] (setting [8]), -69.9343% and -77.4368% and -71.3085% and -83.0203% and -88.6967%. The Diff_vs_Vehicle in data set [1] (transgenic mice, 3mpk) is -3.8966; in data set [1] (transgenic mice, 10mpk) it was -9.353; in data set [1] (transgenic mice, 30mpk), -10.3714; in data set [1] (transgenic mice, 100mpk) it was -12.6134. The 50% effect level in data set [1] (Lp(a) transgenic mice) (ED50) was put at a dose of 14 mg/kg. The “Lp(a)” value in data set [1] (setting [5]) was 11.318 and 12.652 and 12.37 and 12.055 and 12.895; in data set [1] (setting [6]), 7.019 and 5.044 and 7.768 and 7.374; in data set [1] (setting [7]), 4.356 and 4.358 and 7.173 and 7.209 and 5.82; in data set [1] (setting [8]) it was 4.857 and 3.645 and 4.635 and 2.743 and 1.826. In addition, the “binding to KIV2” value in data set [2] is given as “does not bind”. Also, the concentration at 4 h was 13600 nM in data set [3] (oral 3 mg/kg), 21600 nM in data set [3] (oral 10 mg/kg), 28000 nM in data set [3] (oral 30 mg/kg) and 38000 nM in data set [3] (oral 100 mg/kg).
On to `Cl.Cl.O=C(Nc1cccc(C[C@H](C(=O)O)[C@H]2CCNC2)c1)Nc1cccc(C[C@H](C(=O)O)[C@H]2CCNC2)c1` [LSN3441732], for which, in data set [1] (dose 30 mg/kg), the “% max Lp(a) decrease (dose, mg/kg)” value is 79 (30) %. For the same compound, the “mean maximal inhibition of Lp(a)” value in data set [1] (Lp(a) transgenic mice, 30 mg kg^−1 oral BID, five days) was 79%. In data set [1] (Lp(a) transgenic mice), the “% Lp(a) max decrease” value is 79%. Moreover, in data set [1] (setting [4]), the “ED50 for Lp(a) reduction” value amounted to 4 mg/kg. Besides, the Percent_change_from_Vehicle in data set [1] (setting [9]) is -26.3802% and -29.1802% and -35.4498% and -52.0742% and 20.793%; in data set [1] (setting [5]), -66.5236% and -51.6627% and -46.9156% and -38.737% and -24.3395%; in data set [1] (setting [6]) it was -76.5617% and -56.1229% and -72.4537% and -56.7885% and -51.1958%; in data set [1] (setting [7]), -63.8115% and -85.6659% and -79.4795% and -86.8495% and -81.3358%. In addition, the Diff_vs_Vehicle was -9.583 in data set [1] (transgenic mice, 1mpk); -17.8805 in data set [1] (transgenic mice, 3mpk); -24.5369 in data set [1] (transgenic mice, 10mpk); -31.1209 in data set [1] (transgenic mice, 30mpk). Besides, in data set [1] (Lp(a) transgenic mice), the ED50 was determined as 4 mg/kg. Besides, the “Lp(a)” value in data set [1] (setting [9]) was 28.845 and 27.7479 and 25.2914 and 18.7778 and 47.3279; in data set [1] (setting [5]), 13.1164 and 18.9391 and 20.799 and 24.0035 and 29.6445; in data set [1] (setting [6]), 9.183 and 17.1915 and 10.7929 and 16.9307 and 19.122; in data set [1] (setting [7]), 14.179 and 5.616 and 8.04 and 5.1525 and 7.3128. In data set [2], this compound registered a Kd of 130000 nM. The “binding to KIV2” value in data set [2] is listed as “ruled out”. Also, the “Fold-difference (KIV2:KIV8)” value in data set [2] is reported as above 13000. Further, the concentration at 4 h in data set [3] (oral 1 mg/kg) was determined as 147 ± 126 nM; in data set [3] (oral 3 mg/kg), 432 ± 203 nM; in data set [3] (oral 10 mg/kg), 465 ± 167 nM; in data set [3] (oral 30 mg/kg), 625 ± 184 nM.
Regarding `O=C(O)[C@@H](Cc1cccc(CN(Cc2cccc(C[C@H](C(=O)O)[C@H]3CCNC3)c2)Cc2cccc(C[C@H](C(=O)O)[C@H]3CCNC3)c2)c1)[C@H]1CCNC1` [LY3473329], the “Lp(a)” value in data set [1] (setting [10]) was 7.93 and 10.403 and 8.938 and 8.912 and 9.52; in data set [1] (setting [11]), 3.393 and 6.014 and 3.723 and 4.125 and 6.197; in data set [1] (setting [12]), 2.124 and 2.374 and 3.019 and 1.686 and 1.632; in data set [1] (setting [13]) it was 1.195 and 0.994 and 1.853 and 0.894 and 0.985. The “Percent_change_from_Vehicle (Lp(a))” value was -28.3118% and -5.956% and -19.1994% and -19.4345% and -13.9381% in data set [1] (setting [10]); -69.3269% and -45.6327% and -66.3436% and -62.7095% and -43.9784% in data set [1] (setting [11]); -80.7988% and -78.5388% and -72.7079% and -84.7584% and -85.2465% in data set [1] (setting [12]); -89.1971% and -91.0141% and -83.2487% and -91.9181% and -91.0955% in data set [1] (setting [13]). In addition, in data set [1] (dose 100 mg/kg), the “% max Lp(a) decrease (dose, mg/kg)” value is on record as 91.2 (100) %. For the same compound, in data set [1] (Lp(a) transgenic mice), the “% Lp(a) max decrease” value was 91.2%. In addition, the Diff_vs_Vehicle was -1.9212 in data set [1] (transgenic mice, 1mpk); -6.3714 in data set [1] (transgenic mice, 3mpk); -8.8948 in data set [1] (transgenic mice, 10mpk); -9.8776 in data set [1] (transgenic mice, 30mpk). In data set [1] (Lp(a) transgenic mice), this compound yielded a 50% effective dose (ED50) of 3 mg/kg. In data set [2], this compound showed a Kd of 3900 nM. Moreover, the “Fold-difference (KIV2:KIV8)” value in data set [2] came to 177. For the same compound, the concentration at 4 h in data set [3] (oral 1 mg/kg) amounted to 28.4 ± 11 nM; in data set [3] (oral 3 mg/kg) it was 97.3 ± 39.1 nM; in data set [3] (oral 10 mg/kg), 215 ± 34.6 nM; in data set [3] (oral 30 mg/kg), 264 ± 39.3 nM.
